Experimental data reported in patent publication US20130216634A1, “Herbal Supplement Prepared From Pelargonium Citronellum” (priority 2011, published 2013).
Read-outs that look alike come from different tables or passages of the source.

Assays:
[1] = system: 25 different bacterial species, 20 different Listeria monocytogenes cultivars, three different fungi; conditions: singly or in combination, in the percentages listed by the ISO; cited from earlier work
adult human = assay: LD50, adult human (equivalent / reported); conditions: 143 lb (65 kg) adult human
mouse = conditions: cited from earlier work

Structure (SMILES)	Bioactivity (antibacterial, antifungal, anti-oxidant) [1]	LD50 equivalent for adult human (adult human; intraperitoneally injected)	LD50 equivalent for adult human (adult human; intravenously injected)	LD50 (mouse; intraperitoneal administration)	LD50 (mouse; intravenous)
CC(C)=CCCC(C)CCO (stereo not drawn) [citronellol]	very potent				
CC(C)=CCC/C(C)=C/CO [geraniol]	very potent				
CCC(C)CC(C)N (stereo not drawn) [methylhexaneamine, Methylhexaneamine]		978 milligrams	206 mg	185 mg/kg	39 mg/kg
